Laboratory results as given in BindingDB's records for doi:10.1124/jpet.104.075069 (Targacept, 2005).

Tests used:
[1] = target: Neuronal acetylcholine receptor subunit alpha-4 (Rattus norvegicus, UniProt P09483)
[2] = target: Neuronal acetylcholine receptor subunit alpha-7 (Rattus norvegicus, UniProt Q05941)
Neuronal acetylcholine receptor subunit alpha-7, sequence (Q05941 whole entry): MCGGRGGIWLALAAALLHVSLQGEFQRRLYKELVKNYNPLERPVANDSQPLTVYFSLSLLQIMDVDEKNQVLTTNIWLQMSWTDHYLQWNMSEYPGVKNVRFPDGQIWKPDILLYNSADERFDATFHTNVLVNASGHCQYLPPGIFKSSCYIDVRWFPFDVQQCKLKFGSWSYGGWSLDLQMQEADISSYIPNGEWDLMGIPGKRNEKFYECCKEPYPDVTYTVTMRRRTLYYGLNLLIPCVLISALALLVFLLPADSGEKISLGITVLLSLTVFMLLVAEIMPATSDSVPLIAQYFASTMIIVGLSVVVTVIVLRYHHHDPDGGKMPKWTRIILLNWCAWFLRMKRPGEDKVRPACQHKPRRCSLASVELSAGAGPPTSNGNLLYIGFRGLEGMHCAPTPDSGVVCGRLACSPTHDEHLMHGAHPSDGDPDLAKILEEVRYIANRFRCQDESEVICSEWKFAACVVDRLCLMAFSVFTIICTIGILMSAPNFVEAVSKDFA

Neuronal acetylcholine receptor subunit alpha-4, sequence (P09483 whole entry): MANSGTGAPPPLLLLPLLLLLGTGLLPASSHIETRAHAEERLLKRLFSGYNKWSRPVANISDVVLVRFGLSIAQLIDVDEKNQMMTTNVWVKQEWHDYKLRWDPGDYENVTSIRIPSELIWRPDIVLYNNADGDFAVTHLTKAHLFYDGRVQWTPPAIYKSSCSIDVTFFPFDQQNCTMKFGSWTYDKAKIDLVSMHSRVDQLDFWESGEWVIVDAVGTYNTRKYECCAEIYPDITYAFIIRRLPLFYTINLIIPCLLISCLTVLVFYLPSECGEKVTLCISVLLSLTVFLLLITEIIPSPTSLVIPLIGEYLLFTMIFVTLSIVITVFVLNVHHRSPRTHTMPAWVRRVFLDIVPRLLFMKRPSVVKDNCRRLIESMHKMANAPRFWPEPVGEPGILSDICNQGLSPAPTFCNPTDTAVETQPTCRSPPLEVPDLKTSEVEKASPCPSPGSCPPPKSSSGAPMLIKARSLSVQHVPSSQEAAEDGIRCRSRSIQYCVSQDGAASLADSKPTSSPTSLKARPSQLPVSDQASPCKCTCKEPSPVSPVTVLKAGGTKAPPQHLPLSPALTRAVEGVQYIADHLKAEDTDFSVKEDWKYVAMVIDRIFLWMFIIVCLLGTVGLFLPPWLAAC

Row | Compound | Ki [1] [nM] | Ki [2] [nM]
1 | C[N+](C)(C)CCOC(N)=O [(2-Hydroxyethyl)trimethyl ammonium chloride carbamate] | 66.4 | 9920
2 | c1cncc(OCC2CCN2)c1 (stereo not drawn) [A-85380] |  | 54.9
3 | Cc1cc(C2CCCN2C)on1 (stereo not drawn) [ABT-418] | 4.69 | 1970
4 | O=c1cccc2n1CC1CNCC2C1 (stereo not drawn) [CAS_485-35-8] | 0.2 | 1140
5 | CNC(=O)OCC[N+](C)(C)C [CAS_14721-69-8] | 2.51 | 4350
6 | CCN1CC2(COC(=O)c3ccccc3-n3c(O)cc(C)c3O)CCC(OC)C34C5CC6C(OC)CC(O)(C5C6OC)C(O)(C(OC)C23)C14 (stereo not drawn) [CAS_21019-30-7] | 585 | 
7 | COc1ccc(C=C2CCCN=C2c2cccnc2)c(OC)c1 [CAS_156223-05-1] | 278 | 596
8 | COC1CC=C2CCN3CCC4=C(CC(=O)OC4)C23C1 (stereo not drawn) [NSC_31762] | 24.6 | 7700
9 | C#Cc1cncc(C2CCCN2C)c1 (stereo not drawn) [NSC_6442277] | 0.5 | 14400
10 | c1cncc(C2CC3CCN2CC3)c1 (stereo not drawn) [TC-2429] | 1 | 12.4
